Values joined by “and” are separate entries in the source; they are usually repeats but may differ in a detail not shown here. Equal entries are not always repeated.
Tests used:
[1] = tested on: breast tissue of cancer-free and breast tumor-bearing rats; experiment: Effect of BQ788 on ET-1-induced changes in perfusion, CMBC and velocity of blood cells in breast tissue; type: in vivo, rat
[2] = Effect of ET-1 infusion on systemic hemodynamics, radioactive microsphere technique; type: in vivo, rat; conditions: ET-1 50 ng/kg/min infusion for 30 minutes
[3] = tested on: breast tissue of cancer-free and breast tumor-bearing rats; experiment: Effect of ET-1 infusion on blood flow and regional vascular resistance in breast tissue, microspheres; type: in vivo, rat
[4] = tested on: breast tissue of cancer-free and breast tumor-bearing rats; experiment: Effect of ET-1 on perfusion, CMBC and velocity of blood cells in breast tissue, laser Doppler flowmetry; type: in vivo, rat
Protocol: MNU and saline treatments were performed as i.p. injections three months prior to the studies. Rats were palpated regularly starting four weeks after the treatments. Once tumors reached about 4-8 mm in diameter, experiments were initiated.
Rats were initially divided into two groups, each receiving one of the following treatments: • Group I: ET-1 (50 ng/kg/min) infusion for 30 minutes in rats treated with saline (normal rats) (N=6); and • Group II: ET-1 (50 ng/kg/min) infusion for 30 minutes in treated with MNU (50 mg/kg, i.p.; tumor rats) (N=6).
Systemic hemodynamic and regional circulation parameters were determined at baseline, 30, 60, and 120 minutes after starting ET-1 (50 ng/kg/min) infusion.
Blood perfusion to the mammary gland of the rats was measured using laser Doppler flowmetry. See Song et al., Int J Radiat Oncol Biol Phys, 18:903 (1990); Song et al., Int J Radiat Oncol Biol Phys, 17:1041 (1989). The animals were shaved around the nipples. The skin surrounding the mammary glands was dissected out as a lambeau about 6 cm wide and about 4 cm long. A standard model fiber optic probe was applied to the surface of the lambeau, and secured to the tissue by double stick tape. The lambeau was placed in a metal holder and taped down to prevent movement, then connected to a Periflux PF2b 4000 Laser Doppler Flowmetry (Perimed K B, Stockholm, Sweden). The time constant was set at 1.5 seconds and the bandwidth was set at 4 KHz. Data were analyzed using analysis of variance followed by Duncan's test. A level of p<0.05 was considered significant.

[5] = rat, in vivo
[6] = tested on: MNU-induced breast tumors; conditions: rat, in vivo
[7] = tested on: human melanoma cells (UISO-MEL-2) tumor; conditions: nude, mouse, in vivo
[8] = in vivo; conditions: female, Sprague Dawley, rat
[9] = tested on: JHU-4 (MAT-LyLu) prostate tumor; conditions: rat, in vivo
[10] = tumor-bearing rats, at 30 minutes
[11] = tumor-bearing rats, at 60 minutes
[12] = tumor-bearing rats, at 120 minutes
[13] = normal saline-treated rats, ET-1 50 ng/kg/min infusion for 30 minutes
[14] = female, Sprague Dawley, iv, 3 nmol/kg

SMILES: CCCC[C@@H](NC(=O)[C@@H](Cc1cn(C(=O)OC)c2ccccc12)NC(=O)[C@H](CC(C)(C)C)NC(=O)N1[C@H](C)CCC[C@@H]1C)C(=O)O [BQ788, N-cis-2,6-dimethylpiperidinocarbonyl-L-gamma-methyll-eucyl-D-1-methoxycarbonyltrptophanyl-D-Nle]
- CMBC of tumor-bearing versus normal rats ([1]; after BQ788 infusion): no difference
- velocity of RBC, tumor-bearing versus normal rats ([1]; after BQ788 infusion): no difference
- perfusion in breast tissue of tumor-bearing rats versus normal rats ([1]; following ET-1 administration in BQ788 pretreated rats): No difference
- blood perfusion in the breast tissue ([1]; normal rats, BQ788 0.5 μmol/kg infusion for 20 minutes followed by ET-1 50 ng/kg/min for 30 minutes): did not change significantly
- effect of pretreatment on the increase in perfusion induced by ET-1 ([1]; tumor-bearing rats): attenuated

SMILES: CC[C@H](C)[C@H](NC(=O)[C@H](CC(=O)O)NC(=O)[C@H](CC(C)C)NC(=O)[C@H](Cc1c[nH]cn1)NC(=O)[C@@H]1CSSC[C@H](N)C(=O)N[C@@H](CO)C(=O)N[C@H]2CSSC[C@H](NC(=O)[C@H](CCC(=O)O)NC(=O)[C@H](CCCCN)NC(=O)[C@H](CC(=O)O)NC(=O)[C@H](CCSC)NC(=O)[C@H](CC(C)C)NC(=O)[C@H](CO)NC(=O)[C@H](CO)NC2=O)C(=O)N[C@@H](C(C)C)C(=O)N[C@@H](Cc2ccc(O)cc2)C(=O)N[C@@H](Cc2ccccc2)C(=O)N1)C(=O)N[C@H](C(=O)N[C@@H](Cc1c[nH]c2ccccc12)C(=O)O)[C@@H](C)CC [ET-1]
- change in HR ([2]; normal rats): No significant change
- increase in MAP ([2]; normal rats, at 30 minutes): 14.5%
- CO decrease ([2]; normal rats, at 60 minutes): 22.9%
- SV decrease ([2]; normal rats, at 60 minutes): 20.9%
- CO decrease ([2]; normal rats, at 120 minutes): 42.5%
- SV decrease ([2]; normal rats, at 120 minutes): 36%
- TPR increase ([2]; normal rats, at 120 minutes): 49.2%
- decrease in MAP ([2]; normal rats, at 120 minutes): 17.8%
- increase in MAP ([2]; tumor-bearing (MNU treated) rats, at 30 minutes): 19.1%
- increase in MAP ([2]; tumor-bearing (MNU treated) rats, at 60 minutes): 15.3%
- change in HR ([2]; tumor-bearing rats): No change
- CO decrease [2, 10]: 29.4%
- SV decrease [2, 10]: 31.1%
- TPR increase [2, 10]: 73.9%
- CO decrease [2, 11]: 16.7%
- SV decrease [2, 11]: 17.9%
- TPR increase [2, 11]: 39.7%
- CO decrease [2, 12]: 36.1%
- SV decrease [2, 12]: 32.1%
- TPR increase [2, 12]: 71.4%
- vascular resistance in tumor-bearing rats, difference compared to normal rats ([3]; at 60 minutes following ET-1 administration): 147%
- increase in blood flow to the breast tissue of tumor-bearing rats as compared to normal rats ([3]; at 60 minutes following administration of ET-1 50 ng/kg/min): 153%
- change in blood flow to the breast tissue [3, 13]: No significant change
- change in vascular resistance in breast tissue [3, 13]: No significant change
- velocity of RBC in tumor-bearing rats ([4]; 120 minutes after ET-1 administration): returned to baseline
- perfusion in the breast tissue of tumor-bearing rats ([4]; at 60 and 120 minutes following ET-1 administration): returned to baseline
- perfusion in the breast tissue of tumor-bearing rats, increase compared to normal rats ([4]; at 30 minutes following ET-1 administration): 176%
- CMBC in tumor-bearing rats, increase as compared to normal rats ([4]; at 60 minutes post ET-1 administration): 54%
- CMBC in tumor-bearing rats ([4]; at 120 minutes after ET-1 administration): returned to baseline
- blood perfusion in the breast tissue ([4]; normal rats, after ET-1 50 ng/kg/min infusion): did not significantly change
- velocity of RBC, increase compared to normal rats ([4]; tumor-bearing rats, at 30 minutes post ET-1 administration): 252%

SMILES: CC(=O)O[C@H]1C(=O)[C@@]2(C)[C@H]([C@H](OC(=O)c3ccccc3)[C@]3(O)C[C@H](OC(=O)[C@H](O)[C@@H](NC(=O)c4ccccc4)c4ccccc4)C(C)=C1C3(C)C)[C@]1(OC(C)=O)CO[C@@H]1C[C@@H]2O [paclitaxel]
- K10 ([5]; female, Sprague Dawley): 3.14 ± 1.34
- K12 ([5]; female, Sprague Dawley): 56.47 ± 27.69
- K13 ([5]; female, Sprague Dawley): 5.71 ± 3.37
- βt½ ([5]; female, Sprague Dawley): 1.0 ± 0.32 h
- γt½ ([5]; female, Sprague Dawley): 25.87 ± 17.81 h
- AUC of paclitaxel ([5]; female, Sprague Dawley, iv): 9433.53 ± 1465.00 ng·h/mL
- elimination half-life of paclitaxel ([5]; female, Sprague Dawley, iv): 8.4 ± 4.8 min
- AUC0-∞ [5, 14]: 9430 ± 1470 ng·h/mL
- Cl [5, 14]: 9.33 ± 1.2 mL/min/kg
- Vss [5, 14]: 8.14 ± 2.95 L/kg
- α t1/2 [5, 14]: 0.03 ± 0.01
- β t1/2 [5, 14]: 1.0 ± 0.32
- γ t1/2 [5, 14]: 25.87 ± 17.81
- clearance calculated as Dose/AUC [5]: 9.33 ± 1.2 mL/min/kg
- percent of tumors progressed [6]: 71.4% and 61.1%
- percent of tumors regressing in size [6]: 9.5%
- percent of tumors remaining in stasis [6]: 22.2% and 19.5%
- reduction in tumor volume as compared to control rats [6]: 60.0%
- regression (FIG. 13) [6]: 33.8±19.4%
- tumor multiplicity, new tumor occurrence [6]: 78.3% and 41%
- tumor regression rate [6]: 37.7±16.2%
- tumor volume [6]: 1960.8±611.9 mm^3 and 1682.7±497.3 mm^3
- tumors regressed compared to control rats [6]: 45.9±11.5%
- tumor [^3H]paclitaxel concentration [7]: 40.77 nmol/g tissue
- MRT [8]: 27.9 ± 19.8 h
- half-life [8]: 1.8 ± 0.6 min
- Cmax ([8]; iv, 3 nmol/kg): 6730 ± 540 ng/mL
- MRT ([8]; iv, 3 nmol/kg): 27.9 ± 19.8 h
- MRT inf ([8]; iv, 3 nmol/kg): 17.4 ± 8.13 h
- AUC(0-inf) ([8]; iv, 3 nmol/kg, AUC0-∞): 9420 ± 3180 ng·h/mL
- clearance ([8]; iv, 3 nmol/kg, Cl): 11.5 mL/min/kg
- Vd ([8]; iv, 3 nmol/kg, Vd): 10.1 ± 4.18 L/kg
- Vd ([8]; iv, 3 nmol/kg, Vss): 10.3 ± 4.54 L/kg

SMILES: COc1cccc2c1C(=O)c1c(O)c3c(c(O)c1C2=O)C[C@@](O)(C(=O)CO)C[C@@H]3O[C@H]1C[C@H](N)[C@H](O)[C@H](C)O1 [saline+DOX, doxorubicin]
- maximum decrease in body weight [9]: −8.46±3.88

From patent US8729023B2 (priority 2002, dated 2014)
